Consider 37 compounds from US7589097B2, “Triazol[4,5-d] pyramidine derivatives and their use as purinergic receptor antagonists” (Vernalis Research Limited, priority 2001, dated 2009).

The structures appear in SMILES notation. Counter-ions that a name gives are not always drawn.

With `CC(C)(C)OC(=O)Nc1ccc(Cn2nnc3c(-c4ccco4)nc(N)nc32)cc1F` [Example 143, tert-butyl N-(4-(5-amino-7-(2-furyl)-3H-[1,2,3]triazolo[4,5-d]pyrimidine-3-ylmethyl)-2-fluorophenyl)carbamate], the melting point was in the range of 167 to 167.3 °C. Turning to `Cc1ccc(-c2nc(N)nc3c2nnn3Cc2cc(N)ccc2F)o1` (as salt: hydrochloride) [Example 84, 3-(5-amino-2-fluorobenzyl)-7-(5-methyl-2-furyl)-3H-[1,2,3]triazolo[4,5-d]pyrimidine-5-amine hydrochloride], the melting point fell in the range of 235.8 to 236.5 °C. In turn, `COc1ccc([N+](=O)[O-])cc1Cn1nnc2c(-c3ccco3)nc(N)nc21` [Example 66, 7-(2-Furyl)-3-(2-methoxy-5-nitrobenzyl)-3H-[1,2,3]triazolo[4,5-d]pyrimidine-5-amine] registered a melting point of 243.4 to 243.9 °C.

In turn, `COc1ccccc1Cn1nnc2c(-c3ccco3)nc(N)nc21` [Example 77, 7-(2-furyl)-3-(2-methoxybenzyl)-3H-[1,2,3]triazolo[4,5-d]pyrimidine-5-amine] returned a melting point of 212.1 to 214.3 °C. Regarding `NCc1ccc(Cn2nnc3c(-c4ccco4)nc(N)nc32)cc1` [Example 144, 3-(4-aminomethylbenzyl)-7-(2-furyl)-3H-[1,2,3]triazolo[4,5-d]pyrimidine-5-amine], the melting point was > 300 °C (dec.). `Nc1nc(-c2ccco2)c2nnn(Cc3cccc4[nH]ccc34)c2n1` [Example 139, 7-(2-furyl)-3-(4-indolylmethyl)-3H-[1,2,3]triazolo[4,5-d]pyrimidine-5-amine] returned a melting point of 192.3 to 193.5 °C. In turn, `CSCc1cccc(Cn2nnc3c(-c4ccco4)nc(N)nc32)n1` [Example 234, 7-(2-furyl)-3-(6-methylthiomethyl-2-pyridylmethyl)-3H-[1,2,3]triazolo[4,5-d]pyrimidine-5-amine] displayed a melting point of 168.3 to 168.5 °C.

`Nc1cccc(Cn2nnc3c(-c4cccs4)nc(N)nc32)c1` [Example 48, 3-(3-aminobenzyl)-7-(2-thienyl)-3H-[1,2,3]triazolo[4,5-d]pyrimidine-5-amine] yielded a melting point of 265.9 to 266 °C.

Turning to `CC(C)(C)OC(=O)Oc1cc(F)c(Cn2nnc3c(-c4ccco4)nc(N)nc32)c(F)c1` [Example 148, tert-butyl (4-(5-amino-7-(2-furyl)-3H-[1,2,3]triazolo[4,5-d]pyrimidine-3-ylmethyl)-3,5-difluorophenyl)carbonate], the melting point was 259.8 to 259.9 °C. `CN(Cc1cccc(Cn2nnc3c(-c4ccco4)nc(N)nc32)n1)S(C)(=O)=O` [Example 239, N-(6-(5-amino-7-(2-furyl)-3H-[1,2,3]triazolo[4,5-d]pyrimidin-3-ylmethyl)-2-pyridylmethyl)-N-methyl methanesulphonamide] had a melting point of 205.8 to 206 °C. The compound `Nc1nc(-c2ccco2)c2nnn(Cc3cccs3)c2n1` [Example 33, 7-(2-furyl)-3-(2-thienylmethyl)-3H-[1,2,3]triazolo[4,5-d]pyrimidine-5-amine] showed a melting point of 204.1 to 204.2 °C. Compound `Nc1ccc(F)c(Cn2nnc3c(-c4ccco4)nc(N)nc32)c1` [Example 79, 3-(5-amino-2-fluorobenzyl)-7-(2-furyl)-3H-[1,2,3]triazolo[4,5-d]pyrimidine-5-amine] returned a melting point of 308.2 to 308.3 °C. The compound `Cc1cnccc1Cn1nnc2c(-c3ccco3)nc(N)nc21` [Example 126, 7-(2-furyl)-3-(3-methyl-4-pyridylmethyl)-3H-[1,2,3]triazolo[4,5-d]pyrimidine-5-amine] displayed a melting point of 229.6 to 230.3 °C. In the case of `Nc1nc(-c2ccccc2)c2nnn(Cc3cccc([N+](=O)[O-])c3)c2n1` [Example 130, 3-(3-nitrobenzyl)-7-phenyl-3H-[1,2,3]triazolo[4,5-d]pyrimidine-5-amine], the melting point was in the range of 149 to 149.6 °C. With `COCc1cccc(Cn2nnc3c(-c4ccco4)nc(N)nc32)n1` [Example 112, 7-(2-furyl)-3-(6-methoxymethyl-2-pyridylmethyl)-3H-[1,2,3]triazolo[4,5-d]pyrimidine-5-amine], the melting point lay in the range of 190.4 to 191.4 °C. `Nc1cccc(Cn2nnc3c(-c4nccs4)nc(N)nc32)c1` [Example 83, 3-(3-aminobenzyl)-7-(2-thiazolyl)-3H-[1,2,3]triazolo[4,5-d]pyrimidine-5-amine] had a melting point of 252.8 to 253.3 °C. `Cc1ccc(-c2nc(N)nc3c2nnn3Cc2ccccc2N)o1` (as salt: hydrochloride) [Example 74, 3-(2-aminobenzyl)-7-(5-methyl-2-furyl)-3H-[1,2,3]triazolo[4,5-d]pyrimidine-5-amine hydrochloride] showed a melting point of 214.6 to 215.2 °C. Turning to `CC(C)c1ccc(Cn2nnc3c(-c4ccco4)nc(N)nc32)cn1` [Example 228, 7-(2-furyl)-3-(6-isopropyl-3-pyridylmethyl)-3H-[1,2,3]triazolo[4,5-d]pyrimidine-5-amine], the melting point was 164.3 to 169.3 °C. As to `Nc1nc(-c2ccco2)c2nnn(Cc3ccc(F)c([N+](=O)[O-])c3)c2n1` [Example 129, 3-(4-fluoro-3-nitrobenzyl)-7-(2-furyl)-3H-[1,2,3]triazolo[4,5-d]pyrimidine-5-amine], the melting point lay within 266.5 to 266.7 °C. Take `CC(C)(C)OC(=O)n1ccc2c(Cn3nnc4c(-c5ccco5)nc(N)nc43)cccc21` [Example 138, tert-butyl 4-(5-amino-7-(2-furyl)-3H-[1,2,3]triazolo[4,5-d]pyrimidine-3-ylmethyl)indole-1-carboxylate]: the melting point is 58.5 to 62.6 °C. Compound `CC(=O)Nc1cccc(Cn2nnc3c(-c4ccco4)nc(N)nc32)c1` [Example 160] came in with a melting point of 277.4 to 277.9 °C.

For the compound `Cc1ccc(-c2nc(N)nc3[nH]nnc23)o1` [Example 19, 7-(5-Methyl-2-furyl)-1H-[1,2,3]triazolo[4,5-d]pyrimidine-5-amine], the melting point was in the range of 291.8 to 292 °C. The compound `CS(=O)(=O)Cc1cccc(Cn2nnc3c(-c4ccco4)nc(N)nc32)n1` [Example 238, 7-(2-furyl)-3-(6-methylsulphonylmethyl-2-pyridylmethyl)-3H-[1,2,3]triazolo[4,5-d]pyrimidine-5-amine] registered a melting point of 238.2 to 238.6 °C. The compound `Nc1nc(-c2ccco2)c2nnn(Cc3ccc(N)c(O)c3)c2n1` [Example 173, 3-(4-amino-3-hydroxybenzyl)-7-(2-furyl)-3H-[1,2,3]triazolo[4,5-d]pyrimidine-5-amine] returned a melting point of 239.6 to 239.8 °C. Regarding `Cc1ccnc(Cn2nnc3c(-c4ccco4)nc(N)nc32)c1` [Example 131, 7-(2-furyl)-3-(4-methyl-2-pyridylmethyl)-3H-[1,2,3]triazolo[4,5-d]pyrimidine-5-amine], the melting point was in the range of 225.7 to 225.8 °C.

In turn, `CC(=O)Nc1ccc(Cn2nnc3c(-c4ccco4)nc(N)nc32)cc1` [Example 193, N-(4-(5-amino-7-(2-furyl)-3H-[1,2,3]triazolo[4,5-d]pyrimidin-3-ylmethyl)phenyl)acetamide] had a melting point of 253.6 to 254 °C. Compound `CC(C)OCc1cccc(Cn2nnc3c(-c4ccco4)nc(N)nc32)n1` [Example 247, 7-(2-furyl)-3-(6-isopropoxymethyl-2-pyridylmethyl)-3H-[1,2,3]triazolo[4,5-d]pyrimidine-5-amine] registered a melting point of 134.5 to 134.6 °C. The same measure for `Nc1nc(-c2ccco2)c2nnn(Cc3ccc4c(c3)CCO4)c2n1` [Example 166, 3-(2,3-dihydrobenzofuran-5-ylmethyl)-7-(2-furyl)-3H-[1,2,3]triazolo[4,5-d]pyrimidine-5-amine]: 210.3 to 211.2 °C; for `Cc1ccc(-c2nc(N)nc3c2nnn3Cc2c(F)cccc2F)o1` [Example 60, 3-(2,6-difluorobenzyl)-7-(5-methyl-2-furyl)-3H-[1,2,3]triazolo[4,5-d]pyrimidine-5-amine]: 209.7 to 209.8 °C; for `Cc1ccc(-c2nc(N)nc3c2nnn3Cc2cccc(N)c2)o1` [Example 36, 3-(3-aminobenzyl)-7-(5-methyl-2-furyl)-3H-[1,2,3]triazolo[4,5-d]pyrimidine-5-amine]: 231.7 to 234 °C. `CC(=O)NCc1ccccc1Cn1nnc2c(-c3ccco3)nc(N)nc21` [Example 178, N-(2-(5-amino-7-(2-furyl)-3H-[1,2,3]triazolo[4,5-d]pyrimidin-3-ylmethyl)benzyl)acetamide] returned a melting point of 216.7 to 218.4 °C. With `COc1cc(Cn2nnc3c(-c4ccco4)nc(N)nc32)ccc1[N+](=O)[O-]` [Example 133, 7-(2-furyl)-3-(3-methoxy-4-nitrobenzyl)-3H [1,2,3]triazolo[4,5-d]pyrimidine-5-amine], the melting point lay in the range of 209.7 to 209.9 °C.

In the case of `Nc1nc(-c2ccco2)c2nnn(Cc3ccc4nn[nH]c4c3)c2n1` [Example 158, 3-(1H-Benzotriazol-5-ylmethyl)-7-(2-furyl)-3H-[1,2,3]triazolo[4,5-d]pyrimidine-5-amine], the melting point is > 300 °C (dec.). Turning to `CS(=O)(=O)N(Cc1cccc(Cn2nnc3c(-c4ccco4)nc(N)nc32)n1)Cc1cccc(Cn2nnc3c(-c4ccco4)nc(N)nc32)n1` [Example 237, N,N-bis(6-(5-amino-7-(2-furyl)-3H-[1,2,3]triazolo[4,5-d]pyrimidine-3-ylmethyl)-2-pyridylmethyl)methanesulphonamide], the melting point fell in the range of 259.3 to 259.4 °C.

`C=CCOCc1cccc(Cn2nnc3c(-c4ccco4)nc(N)nc32)n1` [Example 185, 3-(6-allyloxymethyl-2-pyridylmethyl)-7-(2-furyl)-3H-[1,2,3]triazolo[4,5-d]pyrimidine-5-amine] showed a melting point of 155.6 to 157.1 °C.

Compound `Nc1nc(-c2ccco2)c2nnn(CC(=O)O)c2n1` [Example 26, (5-Amino-7-(2-furyl)-3H-[1,2,3]triazolo[4,5-d]pyrimidin-3-yl)acetic acid] registered a melting point of 291 to 291.1 °C. `CC(C)CC(=O)NCc1cccc(Cn2nnc3c(-c4ccco4)nc(N)nc32)c1` [Example 85, N-(3-(5-amino-7-(2-furyl)-3H-[1,2,3]triazolo[4,5-d]pyrimidin-3-ylmethyl)benzyl)-3-methylbutanamide] gave a melting point of 215.9 to 217.5 °C.

As usually defined, the melting point is the temperature of the solid-liquid transition.
